Data set [1] deals with human Nav1.7 (Homo sapiens (Human), UniProt Q15858). Put plainly: Human Nav1.7 inhibitory activity evaluation (automated patch clamp QPatch16X, HEK293A cells stably expressing human Nav1.7 and human Navβ1). The class given is cell-based. In outline: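 QPatch16X whole-cell recordings at room temperature from HEK293A cells stably expressing human Nav1.7 with Navβ1, CsF-based internal solution, pH 7.4 external, 0.1% DMSO. From −100 mV holding, protocol included a 15 s hold at a potential inactivating ~30-40% of channels; IC50 from inward current at the second −10 mV pulse.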
human Nav1.7, sequence (Q15858 whole entry): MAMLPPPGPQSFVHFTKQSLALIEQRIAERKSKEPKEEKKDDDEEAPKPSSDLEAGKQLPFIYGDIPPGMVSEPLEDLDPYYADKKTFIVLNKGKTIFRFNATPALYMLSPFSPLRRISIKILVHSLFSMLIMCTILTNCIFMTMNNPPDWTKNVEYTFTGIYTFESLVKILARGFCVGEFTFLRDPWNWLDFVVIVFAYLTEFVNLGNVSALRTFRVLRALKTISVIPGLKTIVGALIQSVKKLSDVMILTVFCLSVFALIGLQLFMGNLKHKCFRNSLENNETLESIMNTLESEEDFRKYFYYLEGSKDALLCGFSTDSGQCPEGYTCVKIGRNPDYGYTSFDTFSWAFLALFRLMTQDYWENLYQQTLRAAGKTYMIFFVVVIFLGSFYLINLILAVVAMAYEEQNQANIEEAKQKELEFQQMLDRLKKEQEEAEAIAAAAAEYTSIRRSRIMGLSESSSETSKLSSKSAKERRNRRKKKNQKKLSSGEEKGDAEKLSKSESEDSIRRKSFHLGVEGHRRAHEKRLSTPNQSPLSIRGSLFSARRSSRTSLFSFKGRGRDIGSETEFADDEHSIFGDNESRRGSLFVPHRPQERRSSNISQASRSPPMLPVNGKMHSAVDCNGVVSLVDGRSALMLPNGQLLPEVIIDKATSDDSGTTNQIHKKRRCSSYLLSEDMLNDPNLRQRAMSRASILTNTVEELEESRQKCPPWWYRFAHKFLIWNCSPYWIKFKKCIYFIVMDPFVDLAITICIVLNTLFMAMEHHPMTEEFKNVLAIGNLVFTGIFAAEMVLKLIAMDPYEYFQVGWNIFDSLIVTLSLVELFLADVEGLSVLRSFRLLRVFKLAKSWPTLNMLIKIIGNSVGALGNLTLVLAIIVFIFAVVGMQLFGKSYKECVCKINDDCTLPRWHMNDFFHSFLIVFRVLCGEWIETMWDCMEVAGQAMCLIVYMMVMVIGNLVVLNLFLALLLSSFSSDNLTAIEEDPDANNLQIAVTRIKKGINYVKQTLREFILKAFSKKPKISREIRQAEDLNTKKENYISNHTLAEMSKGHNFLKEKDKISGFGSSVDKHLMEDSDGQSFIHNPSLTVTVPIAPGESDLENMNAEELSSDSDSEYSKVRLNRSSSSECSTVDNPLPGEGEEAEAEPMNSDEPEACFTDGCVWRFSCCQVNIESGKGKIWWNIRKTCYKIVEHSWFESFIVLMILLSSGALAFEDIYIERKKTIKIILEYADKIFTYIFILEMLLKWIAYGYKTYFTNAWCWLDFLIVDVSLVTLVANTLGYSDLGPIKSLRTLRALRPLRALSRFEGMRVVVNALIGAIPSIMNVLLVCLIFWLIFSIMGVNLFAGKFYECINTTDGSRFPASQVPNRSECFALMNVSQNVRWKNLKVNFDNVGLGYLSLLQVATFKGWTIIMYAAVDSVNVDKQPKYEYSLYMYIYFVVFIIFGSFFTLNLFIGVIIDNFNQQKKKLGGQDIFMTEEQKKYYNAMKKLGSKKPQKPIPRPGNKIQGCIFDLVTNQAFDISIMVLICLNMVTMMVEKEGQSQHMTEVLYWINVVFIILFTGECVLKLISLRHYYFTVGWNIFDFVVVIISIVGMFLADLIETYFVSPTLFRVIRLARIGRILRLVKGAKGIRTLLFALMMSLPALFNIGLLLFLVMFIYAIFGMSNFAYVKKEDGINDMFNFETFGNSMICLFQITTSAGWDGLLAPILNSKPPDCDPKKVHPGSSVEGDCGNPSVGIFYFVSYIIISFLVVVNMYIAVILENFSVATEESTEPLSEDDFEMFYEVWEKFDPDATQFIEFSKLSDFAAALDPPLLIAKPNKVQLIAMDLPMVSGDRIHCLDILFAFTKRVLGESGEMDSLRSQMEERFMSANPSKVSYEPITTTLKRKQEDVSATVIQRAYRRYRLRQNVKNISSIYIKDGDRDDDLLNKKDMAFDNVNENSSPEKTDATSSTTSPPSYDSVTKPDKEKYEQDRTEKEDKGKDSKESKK
human Nav1.7, sequence (Q07699 19-218 partner): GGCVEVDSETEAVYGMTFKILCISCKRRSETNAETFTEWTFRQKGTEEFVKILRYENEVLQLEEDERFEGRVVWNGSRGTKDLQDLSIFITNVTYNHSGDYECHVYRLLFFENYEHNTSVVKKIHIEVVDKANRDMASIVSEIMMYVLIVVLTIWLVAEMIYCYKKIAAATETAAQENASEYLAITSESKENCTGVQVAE

For data set [2], the target named is human Nav1.5 (Homo sapiens (Human), UniProt Q14524). Briefly: Human Nav1.5 inhibitory activity evaluation (automated patch clamp QPatch16X, HEK293 cells stably expressing human Nav1.5). The class given is cell-based. In outline:
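Whole-cell automated patch clamp at room temperature on HEK293 stably expressing human Nav1.5; holding −80 mV, 20 consecutive cardiomyocyte action-potential-like test pulses before and after compound (0.1% DMSO). Inhibition measured on inward current at 20th pulse; IC50 from concentration-response curve.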

For data set [3], the system named is male ICR mice. Briefly: Effect on acute pain (capsaicin-induced pain-related behavior, hind paw). The class given is in vivo. On the procedure:
Test Example 3: Effect on Acute Pain
Six-week old male ICR mice were used for the test. Test compounds were orally administered at 1-10 mg/kg and the mice were habituated to a clear observation cage for 60 minutes. The mice were lightly restrained under no anesthesia and 20 μL of 80 μg/mL (0.8% ethanol-saline) capsaicin solution was injected subcutaneously into the plantar surface of rihgt hind paw of mice. The mice were returned to the observation cage and, from just after that, the duration of pain-related behavior (licking, shaking) occurring in the right hind limb was measured as the reaction time for 5 minutes.
The inhibition rate of the test compound was determined by the following calculation formula. Test compound inhibition rate (%)=100×[1−(response time of test compound administered group/response time of vehicle control group)]

Where [4] appears, read: HEK293A cells stably expressing human Nav1.7 and human Navβ1, automated patch clamp QPatch16X.
[5] abbreviates: HEK293 cells stably expressing human Nav1.5, automated patch clamp QPatch16X.
The mark [6] stands for this setting: human Nav1.5, automated patch clamp.
The mark [7] stands for this setting: human Nav1.7, automated patch clamp.

Structures can show the parent of a compound that is named as a salt. Some results are limits rather than exact numbers.

human Nav1.5, sequence (Q14524 whole entry): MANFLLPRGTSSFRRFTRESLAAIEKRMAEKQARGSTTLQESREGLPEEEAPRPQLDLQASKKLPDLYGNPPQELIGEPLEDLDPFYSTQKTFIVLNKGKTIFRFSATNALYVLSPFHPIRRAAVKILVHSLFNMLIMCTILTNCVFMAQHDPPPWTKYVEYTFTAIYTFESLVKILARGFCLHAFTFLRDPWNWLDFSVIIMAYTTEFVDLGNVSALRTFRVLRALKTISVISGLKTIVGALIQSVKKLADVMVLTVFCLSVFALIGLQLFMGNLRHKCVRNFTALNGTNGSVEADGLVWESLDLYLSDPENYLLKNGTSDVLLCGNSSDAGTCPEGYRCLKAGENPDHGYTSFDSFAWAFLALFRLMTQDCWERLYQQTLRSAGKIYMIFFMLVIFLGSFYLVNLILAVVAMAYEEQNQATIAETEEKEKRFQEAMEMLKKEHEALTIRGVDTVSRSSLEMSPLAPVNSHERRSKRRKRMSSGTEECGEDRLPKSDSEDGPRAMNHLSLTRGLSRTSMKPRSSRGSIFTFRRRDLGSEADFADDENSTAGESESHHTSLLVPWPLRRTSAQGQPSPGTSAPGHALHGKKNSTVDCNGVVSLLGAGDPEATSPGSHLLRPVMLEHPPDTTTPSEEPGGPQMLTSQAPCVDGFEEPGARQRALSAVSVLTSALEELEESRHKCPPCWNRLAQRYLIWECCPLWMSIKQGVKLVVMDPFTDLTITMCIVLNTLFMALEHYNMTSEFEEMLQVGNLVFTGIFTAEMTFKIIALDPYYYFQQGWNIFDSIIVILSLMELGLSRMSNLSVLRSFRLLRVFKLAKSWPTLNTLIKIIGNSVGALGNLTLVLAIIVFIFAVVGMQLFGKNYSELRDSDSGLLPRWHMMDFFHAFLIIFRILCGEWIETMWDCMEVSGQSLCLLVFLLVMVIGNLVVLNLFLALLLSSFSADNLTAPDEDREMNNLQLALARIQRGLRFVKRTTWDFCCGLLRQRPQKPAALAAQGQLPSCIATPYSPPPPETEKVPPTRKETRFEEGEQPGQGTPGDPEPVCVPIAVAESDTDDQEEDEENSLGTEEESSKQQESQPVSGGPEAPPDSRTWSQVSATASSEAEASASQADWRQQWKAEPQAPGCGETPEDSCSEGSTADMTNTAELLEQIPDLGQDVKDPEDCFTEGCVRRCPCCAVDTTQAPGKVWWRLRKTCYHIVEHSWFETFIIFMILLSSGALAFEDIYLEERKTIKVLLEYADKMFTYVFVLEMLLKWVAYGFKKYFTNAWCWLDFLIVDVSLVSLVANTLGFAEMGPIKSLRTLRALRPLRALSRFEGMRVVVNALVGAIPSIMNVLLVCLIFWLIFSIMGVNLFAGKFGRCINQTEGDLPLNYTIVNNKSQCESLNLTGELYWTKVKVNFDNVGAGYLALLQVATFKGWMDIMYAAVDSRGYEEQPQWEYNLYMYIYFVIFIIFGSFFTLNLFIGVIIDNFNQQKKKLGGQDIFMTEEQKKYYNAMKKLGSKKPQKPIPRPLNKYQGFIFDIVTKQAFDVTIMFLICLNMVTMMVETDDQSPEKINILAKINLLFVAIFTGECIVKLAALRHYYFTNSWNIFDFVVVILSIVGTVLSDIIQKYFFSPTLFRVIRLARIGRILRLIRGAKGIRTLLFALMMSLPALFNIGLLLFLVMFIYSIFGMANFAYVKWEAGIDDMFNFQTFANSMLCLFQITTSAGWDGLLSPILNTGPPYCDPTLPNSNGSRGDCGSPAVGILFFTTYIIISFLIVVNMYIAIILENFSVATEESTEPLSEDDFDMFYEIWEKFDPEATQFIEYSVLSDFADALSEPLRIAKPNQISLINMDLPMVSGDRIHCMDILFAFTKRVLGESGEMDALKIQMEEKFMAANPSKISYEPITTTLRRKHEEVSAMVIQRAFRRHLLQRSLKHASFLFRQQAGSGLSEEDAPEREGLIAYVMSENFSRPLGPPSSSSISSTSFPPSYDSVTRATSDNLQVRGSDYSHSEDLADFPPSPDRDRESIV

In the case of `COc1cc(C2CCn3nc(C(=O)N[C@H]4COc5ccc(C#N)cc5C4)cc3O2)ccn1` (single isomer, unassigned) [74 (isomer A)], the IC50 was under 1 µM in data set [1] (setting [4]) and at least 3 µM in data set [2] (setting [5]). For the same compound, in data set [3], the “Inhibition rate (%)” value is reported as “A (Compounds with an inhibition rate of 30% or more are indicated by the letter “A”)”.

Take `CCCOCC1CCn2nc(C(=O)N[C@H]3COc4ccc(C#N)cc4C3)cc2O1` (single isomer, unassigned) [101 (isomer A)]: the values for the IC50 in data set [1] (setting [4]) and in data set [2] (setting [5]) were under 1 µM and at least 3 µM, respectively. Also, the “Inhibition rate (%)” value in data set [3] is reported as “C (compounds with an inhibition rate of 10% or more but less than 20% is indicated by the letter “C”)”.

As for `N#Cc1ccc2c(c1)C[C@@H](NC(=O)c1cc3n(n1)CCC(COCC(F)(F)F)O3)CO2` (single isomer, unassigned) [115 (isomer A)], the IC50 in data set [1] (setting [4]) is under 10 µM; in data set [2] (setting [5]), at least 3 µM. Moreover, the “Inhibition rate (%)” value in data set [3] is recorded as “A (Compounds with an inhibition rate of 30% or more are indicated by the letter “A”)”.

With `O=C(N[C@H]1COc2ccc(COCC(F)(F)F)cc2C1)c1cc2n(n1)CCC(COCC(F)(F)F)O2` (single isomer, unassigned) [129 (isomer A)], the IC50 in data set [1] (setting [4]) is under 1 µM; in data set [2] (setting [5]) it was at least 3 µM. Also, the “Inhibition rate (%)” value in data set [3] is on record as “A (Compounds with an inhibition rate of 30% or more are indicated by the letter “A”)”.

Regarding `N#Cc1ccc2c(c1)C[C@@H](NC(=O)c1cc3n(n1)CCC(CCOC(F)(F)F)O3)CO2` (single isomer, unassigned) [144 (isomer B)], the IC50 in data set [2] (setting [6]) is at least 3 µM. In addition, in data set [3], the “Inhibition rate (%)” value was “A (Compounds with an inhibition rate of 30% or more are indicated by the letter “A”)”.

For `COc1ncc(-c2ccc3c(c2)C[C@@H](NC(=O)c2cc4n(n2)CC(CCOCC2CC2)O4)CO3)cn1` (single isomer, unassigned) [204 (isomer A)], the values for the IC50 in data set [1] (setting [7]) and in data set [2] (setting [6]) were under 1 µM and at least 3 µM, respectively. For the same compound, in data set [3], the “Inhibition rate (%)” value is “A (Compounds with an inhibition rate of 30% or more are indicated by the letter “A”)”.

`Cn1ccc(-c2ccc3c(c2)C[C@@H](NC(=O)c2cc4n(n2)CC(CCOC(F)(F)F)O4)CO3)n1` (single isomer, unassigned) [213 (isomer B)]: the “Inhibition rate (%)” value in data set [3] is “B (compounds with an inhibition rate of 20% or more and less than 30% are indicated by the letter “B”)”.

Regarding `N#Cc1ccc2c(c1)C[C@@H](NC(=O)c1cc3n(n1)CC(CCSCC(F)(F)F)O3)CO2` (single isomer, unassigned) [244 (isomer A)], the IC50 was under 1 µM in data set [1] (setting [7]) and 1 to 3 µM in data set [2] (setting [6]). In data set [3], the “Inhibition rate (%)” value was “B (compounds with an inhibition rate of 20% or more and less than 30% are indicated by the letter “B”)”.

As for `CCC1CCn2nc(C(=O)N[C@H]3COc4ccc(C#N)cc4C3)cc2O1` (single isomer, unassigned) [Example 92 (isomer A)], the IC50 is under 1 µM in data set [1] (setting [4]) and at least 3 µM in data set [2] (setting [5]). The “Inhibition rate (%)” value in data set [3] is “A (Compounds with an inhibition rate of 30% or more are indicated by the letter “A”)”.

In the case of `CCC1CCn2nc(C(=O)N[C@H]3COc4ccc(C#N)cc4C3)cc2O1` (single isomer, unassigned) [Example 92 (isomer B)], the “Inhibition rate (%)” value in data set [3] is “A (Compounds with an inhibition rate of 30% or more are indicated by the letter “A”)”.

As for `O=C(N[C@H]1COc2ccc(Cl)cc2C1)c1cn2c(n1)CCC(C(F)(F)F)C2` (single isomer, unassigned; isomer a) [Example 288, hydrochloride], the “Inhibition rate (%)” value in data set [3] was “A (Compounds with an inhibition rate of 30% or more are indicated by the letter “A”)”.

As for `O=C(N[C@H]1COc2ccccc2C1)c1cn2c(n1)CCC(OCC(F)(F)F)C2` (stereo partly drawn) [Example 37, N—((R)-chroman-3-yl)-6-(2,2,2-trifluoroethoxy)-5,6,7,8-tetrahydroimidazo[1,2-a]pyridine-2-carboxamide], the concentration for half-maximal inhibition (IC50) in data set [1] (setting [4]) is under 10 µM; in data set [2] (setting [5]), at least 3 µM. The “Inhibition rate (%)” value in data set [3] was “B (compounds with an inhibition rate of 20% or more and less than 30% are indicated by the letter “B”)”.

Turning to `O=C(N[C@H]1COc2ccc(C(F)F)cc2C1)c1cn2c(n1)CCC(OCC(F)(F)F)C2` (some centres unmarked) [Example 40], the values for the concentration for half-maximal inhibition (IC50) in data set [1] (setting [4]) and in data set [2] (setting [5]) were under 10 µM and at least 3 µM, respectively. Moreover, in data set [3], the “Inhibition rate (%)” value was “B (compounds with an inhibition rate of 20% or more and less than 30% are indicated by the letter “B”)”.

For the compound `O=C(N[C@H]1COc2ccccc2C1)c1cn2c(n1)CNC(c1ccc(F)c(F)c1)C2` (some centres unmarked) [Example 44], the IC50 in data set [1] (setting [4]) was under 10 µM; in data set [2] (setting [5]), at least 3 µM. Besides, the “Inhibition rate (%)” value in data set [3] was “A (Compounds with an inhibition rate of 30% or more are indicated by the letter “A”)”.

In the case of `O=C(NCCc1cccc(C(F)(F)F)c1)c1cn2c(n1)CNC(c1ccccc1)C2` (centres unmarked) [Example 48], the values for the IC50 in data set [1] (setting [4]) and in data set [2] (setting [5]) were under 10 µM and at least 3 µM, respectively. For the same compound, the “Inhibition rate (%)” value in data set [3] is on record as “A (Compounds with an inhibition rate of 30% or more are indicated by the letter “A”)”.

As to `O=C(c1cn2c(n1)CNC(c1ccccc1)C2)N1CCC(c2cccc(C(F)(F)F)c2)C1` (centres unmarked) [Example 60], the IC50 in data set [1] (setting [4]) was under 10 µM; in data set [2] (setting [5]), at least 3 µM. In data set [3], the “Inhibition rate (%)” value was “B (compounds with an inhibition rate of 20% or more and less than 30% are indicated by the letter “B”)”.

Consider `O=C(c1cn2c(n1)CNC(c1ccccc1)C2)N1CCOC(c2cccc(C(F)(F)F)c2)C1` (centres unmarked) [Example 61], for which the IC50 in data set [1] (setting [4]) is under 10 µM; in data set [2] (setting [5]) it was at least 3 µM. The “Inhibition rate (%)” value in data set [3] was “B (compounds with an inhibition rate of 20% or more and less than 30% are indicated by the letter “B”)”.

`O=C(N[C@H]1COc2ccc(C(F)(F)F)cc2C1)c1nn2c(c1-c1ccccn1)COCC2` [Example 260, (R)-3-(pyridin-2-yl)-N-(6-(trifluoromethyl)chroman-3-yl)-6,7-dihydro-4H-pyrazolo[5,1-c][1,4]oxazine-2-carboxamide]: the IC50 in data set [1] (setting [7]) was under 1 µM; in data set [2] (setting [6]), at least 3 µM. The “Inhibition rate (%)” value in data set [3] is recorded as “A (Compounds with an inhibition rate of 30% or more are indicated by the letter “A”)”.

Turning to `N#Cc1ccc2c(c1)C[C@@H](NC(=O)c1cc3n(n1)CCN(Cc1ccccc1F)C3)CO2` [Example 497], the IC50 in data set [1] (setting [7]) is under 1 µM; in data set [2] (setting [6]), at least 3 µM.

`N#Cc1ccc2c(c1)C[C@@H](NC(=O)c1cc3n(n1)CCN(Cc1ccccc1C(F)(F)F)C3)CO2` [Example 499]: the IC50 was under 1 µM in data set [1] (setting [7]) and 1 to 3 µM in data set [2] (setting [6]).

Consider `CC(C)(CC1CC1)N1CCn2nc(C(=O)N[C@H]3COc4ccc(C#N)cc4C3)cc2C1` [Example 502], for which the 50% inhibitory concentration (IC50) is under 10 µM in data set [1] (setting [7]) and 1 to 3 µM in data set [2] (setting [6]).

`O=C(N[C@H]1COc2ccc(CC(F)F)cc2C1)c1cc2n(n1)CCN(CCC1CC1)C2` [Example 504]: the IC50 was under 1 µM in data set [1] (setting [7]) and 1 to 3 µM in data set [2] (setting [6]).

Take `O=C(N[C@H]1COc2ccc(C(F)(F)F)cc2C1)c1cc2n(n1)CCN(CCC(F)(F)F)C2` [Example 506]: the figures for the IC50 in data set [1] (setting [7]) and in data set [2] (setting [6]) were under 1 µM and 1 to 3 µM, respectively.

Take `O=C(N[C@H]1COc2ccc(COCC(F)(F)F)cc2C1)c1cc2n(n1)CCN(CCC(F)(F)F)C2` [Example 507]: the IC50 in data set [1] (setting [7]) is under 1 µM; in data set [2] (setting [6]), at least 3 µM.

On to `Cn1ccc(-c2c(C(=O)N[C@H]3COc4ccc(C(F)(F)F)cc4C3)nn3c2COCC3)n1` [Example 518], for which the IC50 in data set [1] (setting [7]) was under 1 µM; in data set [2] (setting [6]), 1 to 3 µM.

`O=C(N[C@H]1COc2ccc(C(F)(F)F)cc2C1)c1nn2c(c1C(O)c1ccccn1)COCC2` (some centres unmarked) [Example 530]: the values for the IC50 in data set [1] (setting [7]) and in data set [2] (setting [6]) were under 10 µM and at least 3 µM, respectively.

As for `O=C(N[C@H]1COc2ccc(C(F)(F)F)cc2C1)c1nn2c(c1CCc1ccccn1)COCC2` [Example 531], the IC50 in data set [1] (setting [7]) is under 10 µM; in data set [2] (setting [6]), 1 to 3 µM.

On to `N#CC1(COCC2CCn3nc(C(=O)N[C@H]4COc5ccc(Cl)cc5C4)cc3O2)CC1` (some centres unmarked) [Example 538], for which the results for the IC50 in data set [1] (setting [7]) and in data set [2] (setting [6]) were under 1 µM and at least 3 µM, respectively.

On to `CC(C)(F)C1CCn2nc(C(=O)N[C@H]3COc4ccc(C#N)cc4C3)cc2O1` (some centres unmarked) [Example 540], for which the IC50 in data set [1] (setting [7]) was under 1 µM; in data set [2] (setting [6]), 1 to 3 µM.

Consider `N#Cc1ccc2c(c1)C[C@@H](NC(=O)c1cc3n(n1)CC(C(F)(F)COCC1CC1)O3)CO2` (some centres unmarked) [Example 541], for which the IC50 in data set [1] (setting [7]) was under 1 µM; in data set [2] (setting [6]), at least 3 µM.

In the case of `CC1CCn2nc(C(=O)N[C@H]3COc4ccc(COCC(F)(F)F)cc4C3)cc2OC1` (some centres unmarked) [Example 543], the IC50 in data set [1] (setting [7]) was under 10 µM; in data set [2] (setting [6]), at least 3 µM.

Regarding `COC1c2cc(C(F)(F)F)ccc2OC[C@@H]1NC(=O)c1cc2n(n1)CCC(C(F)F)O2` (some centres unmarked) [Example 568], the IC50 in data set [1] (setting [7]) is under 1 µM; in data set [2] (setting [6]), at least 3 µM.

For the compound `O=C(N[C@H]1COc2ccc(C(F)(F)F)cc2C1O)c1cc2n(n1)CCN(CCC1CC1)C2` (some centres unmarked) [Example 593], the concentration for half-maximal inhibition (IC50) is under 10 µM in data set [1] (setting [7]) and 1 to 3 µM in data set [2] (setting [6]).

Source of the values: patent US12421225B2, “Heteroaromatic amide derivative and medicament containing the same” (KAKEN PHARMACEUTICAL CO., LTD., priority 2018, dated 2025).
